Read-outs that look alike come from different tables or passages of the source.
Assays:
[1] = Volatility of perfuming compounds (Tables 4 to 10), with top/middle/bottom note type; type: physicochemical
Outline: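 Volatility is expressed in μg/l in air. Top notes are 70,000 to 100 μg/l, middle notes 99 to 50 μg/l, and bottom notes 49 to 0.1 μg/l. Compounds are grouped by olfactive family: watery, green, fruity, citrus, sweet, gourmand and woody.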

[2] = Odor threshold and odor value of perfuming compounds (Tables 4 to 10)
[3] = Table 6, perfuming compounds having a fruity note
[4] = Table 6, perfuming compounds having a fruity note, note type by volatility
[5] = Table 7, citrus note, top, middle or bottom note
[6] = Table 7, citrus note, equals volatility divided by odor threshold
[7] = note type (Top/Middle/Bottom) by volatility, perfuming compounds having a green note
[8] = perfuming compounds having a green note
[9] = Table 8, perfuming compounds having a sweet note, note type by volatility
[10] = Table 9, perfuming compounds having a gourmand note, note type by volatility
[11] = Table 8, perfuming compounds having a sweet note
[12] = Table 4, watery note, top, middle or bottom note
[13] = Table 4, watery note, equals volatility divided by odor threshold

Compound	Volatility [1, 3]	Type [1, 4]	Odor Threshold [2, 3]	Odor Value [2, 3]	Type [1, 7]	Volatility (μg/l air) [1, 8]	Odor Threshold (μg/l air) [2, 8]	further results
C/C=C(\C)C(=O)OCc1ccccc1 [BENZYL (E)-2-METHYL-2-BUTENOATE]	33.88 μg/l air	Bottom	3.07E−04 μg/l air	1.11E+05				Type ([1]; Table 10, perfuming compounds having a woody note, note type by volatility): Bottom; Volatility ([1]; Table 10, woody note): 33.88 μg/l air; Odor Threshold ([2]; Table 10, woody note): 3.07E−04 μg/l air
O=C(OCc1ccccc1)c1ccccc1 [BENZYL BENZOATE]	0.85 μg/l air	Bottom	3.67E−02 μg/l air	2.31E+01				Volatility (μg/l air) ([1]; Table 7, citrus note): 0.85 μg/l air; Type [1, 5]: Bottom; Odor Threshold (μg/l air) ([2]; Table 7, citrus note): 3.67E−02 μg/l air; Odor Value [2, 6]: 2.31E+01
CCC(=O)OCc1ccccc1 [BENZYL PROPANOATE]	113.60 μg/l air	TOP (perfuming compounds having a volatility ranging from 70,000 to 100 μg/l in air are referred to as “top notes”)	2.81E−02 μg/l air	4.04E+03	Top	113.60 μg/l air	2.81E−02 μg/l air	
CCCCOC(C)=O [BUTYL ACETATE]		TOP (perfuming compounds having a volatility ranging from 70,000 to 100 μg/l in air are referred to as “top notes”)						Volatility [1]: 117207.52 μg/l air; Type [1, 9]: Top; Type [1, 10]: Top; Odor Threshold [2, 11]: 4.18E−01 μg/l air; Odor Value [2, 11]: 2.80E+05; Odor Threshold ([2]; Table 9, gourmand note): 4.18E−01 μg/l air
N#CC(=C1CCCCC1)c1ccccc1 [CYCLOHEXYLIDENE(PHENYL)ACETONITRILE]					Bottom	0.96 μg/l air	3.31E−04 μg/l air	
CCCCCCCCCC=O [DECANAL″]								Volatility (μg/l air) ([1]; Table 4, watery note): 466.56 μg/l air; Type [1, 12]: TOP (perfuming compounds having a volatility ranging from 70,000 to 100 μg/l in air are referred to as “top notes”); Odor Threshold (μg/l air) ([2]; Table 4, watery note): 1.92E−03 μg/l air; Odor Value [2, 13]: 2.43E+05
C=CCSSCC=C [DIALLYL DISULFIDE]								Volatility [1, 11]: 5487.52 μg/l air; Type [1, 9]: Top; Volatility ([1]; Table 9, gourmand note): 5487.52 μg/l air; Type [1, 10]: Top; Odor Threshold [2, 11]: 3.98E−05 μg/l air; Odor Value [2, 11]: 1.38E+08; Odor Threshold ([2]; Table 9, gourmand note): 3.98E−05 μg/l air
CCCCSCCCC [DIBUTYL SULFIDE]					Top	2766.10 μg/l air	2.34E−02 μg/l air	
CCCCCCCCCCCC=O [DODECANAL]								Volatility (μg/l air) ([1]; Table 4, watery note): 144.79 μg/l air; Type [1, 12]: TOP (perfuming compounds having a volatility ranging from 70,000 to 100 μg/l in air are referred to as “top notes”); Odor Threshold (μg/l air) ([2]; Table 4, watery note): 9.90E−04 μg/l air; Odor Value [2, 13]: 1.46E+05
CCCCCCCCCCCC#N [DODECANENITRILE]								Volatility (μg/l air) ([1]; Table 4, watery note): 56.74 μg/l air; Type [1, 12]: middle (perfuming compounds having a volatility ranging from 99 to 50 μg/l in air are referred to as “middle notes”); Odor Threshold (μg/l air) ([2]; Table 4, watery note): 3.20E−06 μg/l air; Odor Value [2, 13]: 1.77E+07
CCOC(=O)C1OC1(C)c1ccccc1 (centres unmarked) [ETHYL 2,3-EPDXY-3-PHENYLBUTANOATE]	12.97 μg/l air	Bottom	2.28E−05 μg/l air	5.68E+05				
CCOC(=O)CC1(C)OCCO1 [ETHYL 2-METHYL-1,3-DIOXOLANE-2-ACETATE]	479.20 μg/l air	TOP (perfuming compounds having a volatility ranging from 70,000 to 100 μg/l in air are referred to as “top notes”)			Top	479.20 μg/l air	1.62E−03 μg/l air	Volatility [1, 11]: 479.20 μg/l air; Type [1, 9]: Top; Volatility ([1]; Table 9, gourmand note): 479.20 μg/l air; Type [1, 10]: Top; Odor Threshold [2, 11]: 1.62E−03 μg/l air; Odor Value [2, 11]: 2.95E+05; Odor Threshold ([2]; Table 9, gourmand note): 1.62E−03 μg/l air
CCC=CCC=C/C=C/C(=O)OCC [ETHYL (2E)-2,4,7-DECATRIENOATE]	25.34 μg/l air	Bottom	1.49E−02 μg/l air	1.70E+03	Bottom	25.34 μg/l air	1.49E−02 μg/l air	
CCOC(=O)/C=C/c1ccccc1 [ETHYL (E)-3-PHENYL-2-PROPENOATE]	20.55 μg/l air	Bottom	2.38E−05 μg/l air	8.62E+05				
CCCC(=O)OCC [ETHYL BUTANOATE]	142519.74 μg/l air	TOP (perfuming compounds having a volatility ranging from 70,000 to 100 μg/l in air are referred to as “top notes”)			Top	142519.74 μg/l air	3.68E−04 μg/l air	
CCCCCC(=O)OCC [ETHYL HEXANOATE]	9675.10 μg/l air	TOP (perfuming compounds having a volatility ranging from 70,000 to 100 μg/l in air are referred to as “top notes”)			Top	9675.10 μg/l air	9.11E−04 μg/l air	Volatility [1, 11]: 9675.10 μg/l air; Type [1, 9]: Top; Volatility ([1]; Table 9, gourmand note): 9675.10 μg/l air; Type [1, 10]: Top; Odor Threshold [2, 11]: 9.11E−04 μg/l air; Odor Value [2, 11]: 1.06E+07; Odor Threshold ([2]; Table 9, gourmand note): 9.11E−04 μg/l air
CCCCCCC=O [HEPTANAL]					Top	22184.00 μg/l air	2.03E−03 μg/l air	
CCCCCC(=O)O [HEXANOIC ACID]					Top	197.90 μg/l air	1.82E−02 μg/l air	Volatility [1, 11]: 197.90 μg/l air; Type [1, 9]: Top; Volatility ([1]; Table 9, gourmand note): 197.90 μg/l air; Type [1, 10]: Top; Odor Threshold [2, 11]: 1.82E−02 μg/l air; Odor Value [2, 11]: 1.09E+04; Odor Threshold ([2]; Table 9, gourmand note): 1.82E−02 μg/l air
CCCCCCOC(=O)c1ccccc1O [HEXYL 2-HYDROXYBENZOATE]	3.82 μg/l air	Bottom	5.50E−03 μg/l air	6.95E+02	Bottom	3.82 μg/l air	5.50E−03 μg/l air	Volatility (μg/l air) ([1]; Table 7, citrus note): 3.82 μg/l air; Type [1, 5]: Bottom; Odor Threshold (μg/l air) ([2]; Table 7, citrus note): 5.50E−03 μg/l air; Odor Value [2, 6]: 6.95E+02
CCCCCCOC(C)=O [HEXYL ACETATE]	2316.04 μg/l air	TOP (perfuming compounds having a volatility ranging from 70,000 to 100 μg/l in air are referred to as “top notes”)			Top	2316.04 μg/l air	1.32E−01 μg/l air	
CCCCCCOC(=O)CCCCC [HEXYL HEXANOATE]	105.52 μg/l air	TOP (perfuming compounds having a volatility ranging from 70,000 to 100 μg/l in air are referred to as “top notes”)	9.98E−02 μg/l air	1.06E+03				
COC(=O)c1c(C)cc(O)c(C)c1O [METHYL 2,4-DIHYDROXY-3,6-DIMETHYLBENZOATE]								Volatility (μg/l air) ([1]; Table 4, watery note): 1.52 μg/l air; Type [1, 12]: bottom (perfuming compounds having a volatility ranging from 49 to 0.1 μg/l in air are referred to as “bottom notes”); Odor Threshold (μg/l air) ([2]; Table 4, watery note): 4.89E−06 μg/l air; Odor Value [2, 13]: 3.11E+05
CCCCCCC#CC(=O)OC [METHYL 2-NONYNOATE]					Middle	91.76 μg/l air	1.60E−03 μg/l air	Volatility (μg/l air) ([1]; Table 4, watery note): 91.76 μg/l air; Type [1, 12]: middle (perfuming compounds having a volatility ranging from 99 to 50 μg/l in air are referred to as “middle notes”); Odor Threshold (μg/l air) ([2]; Table 4, watery note): 1.60E−03 μg/l air; Odor Value [2, 13]: 5.74E+04
CCCCCC#CC(=O)OC [METHYL 2-OCTYNOATE]					Top	472.01 μg/l air	8.31E−04 μg/l air	
CCCCCC#CC(=O)OC [METHYL 2-OCTYNOATE″]								Volatility (μg/l air) ([1]; Table 4, watery note): 472.01 μg/l air; Type [1, 12]: TOP (perfuming compounds having a volatility ranging from 70,000 to 100 μg/l in air are referred to as “top notes”); Odor Threshold (μg/l air) ([2]; Table 4, watery note): 8.31E−04 μg/l air; Odor Value [2, 13]: 5.68E+05
COC(=O)/C=C/c1ccccc1 [METHYL (E)-3-PHENYL-2-PROPENOATE]	61.65 μg/l air	Middle	3.13E−03 μg/l air	1.97E+04				
CCCCCC(=O)OC [METHYL HEXANOATE]	23345.90 μg/l air	TOP (perfuming compounds having a volatility ranging from 70,000 to 100 μg/l in air are referred to as “top notes”)			Top	23345.90 μg/l air	8.43E−02 μg/l air	
COC(=O)Cc1ccccc1 [METHYL PHENYLACETATE]	555.30 μg/l air	TOP (perfuming compounds having a volatility ranging from 70,000 to 100 μg/l in air are referred to as “top notes”)						Volatility [1, 11]: 555.30 μg/l air; Type [1, 9]: Top; Volatility ([1]; Table 9, gourmand note): 555.30 μg/l air; Type [1, 10]: Top; Odor Threshold [2, 11]: 3.21E−04 μg/l air; Odor Value [2, 11]: 1.73E+06; Odor Threshold ([2]; Table 9, gourmand note): 3.21E−04 μg/l air
CCCCCCCC=O [OCTANAL]					Top	4147.61 μg/l air	2.77E−04 μg/l air	
COc1nccnc1CC(C)C [PYRAZOBUTYLE]					Top	1617.21 μg/l air	7.20E−07 μg/l air	
